Values after ≈ are worked out from the molar mass of the structure shown. Blank lines part the entries; values can stand above or below the molecule they belong to.
Legend:
[1] = system: Candida albicans 90028; test: Antifungal microdilution, C. albicans ATCC 90028; assay type: cell-based; conditions: microdilution CLSI M27-A3, 48 h, 37 °C
Description: (§1) In accordance with CLSI guidelines, compounds 3a–h were tested against a variety of fungal strains (Candida albicans 10231, Candida albicans 90028, Candida glabrata 15126, and Candida parapsilosis 22019) belonging to the ATCC collection. Amphotericin B was utilized as a reference drug. A similar trend of results, or even better than that obtained against bacteria, was assessed against fungal strains. […] Also, in this case, compound 3h emerged as the best of the series, with MICs of 16 μg/mL against Candida glabrata and Candida parapsilosis strains and 32 μg/mL against Candida albicans strains.
(§2) A microdilution technique described by the Clinical and Laboratory Standards Institute (CLSI, M27-A3) was used to assess the antifungal activity. The following fungal strains, belonging to the ATCC collection and available as freeze-dried discs, were used: C. albicans ATCC 10231, C. albicans ATCC 90028, C. glabrata ATCC 15126, and C. parapsilosis ATCC 22019. Stock solutions were prepared and preserved with purity as previously described for the antibacterial studies. Each yeast strain’s pre-cultures were made in Sabouraud broth (SAB) and allowed to grow until they stopped at 37 °C. By using a spectrophotometric technique (530 nm, range 0.12–0.15), the turbidity of the yeast stock suspension was calibrated to 0.5 McFarland Standard. Next, the standardized suspension was diluted first at 1:50 with SAB and then at 1:20 in the same medium to have […]. A total of 100 µL of inoculum was seeded into each well. As a control for growth, several wells containing only inoculated broth were prepared. The plates were incubated for 48 h at 37 °C, and the MIC values were calculated as the final well with no fungal growth. […] MIC values were observed based on the absence of fungal growth in the final well. The MICs were calculated by conducting the antifungal test three times in duplicate. As a control, amphotericin B was used.

[2] = system: Candida parapsilosis 22019; test: Antifungal microdilution, C. parapsilosis ATCC 22019; assay type: cell-based; conditions: microdilution CLSI M27-A3, 48 h, 37 °C, read-out: MIC C.p. 22019
Description: as §1, §2

[3] = system: Candida glabrata 15126; test: Antifungal microdilution, C. glabrata ATCC 15126; assay type: cell-based; conditions: Nakaseomyces glabratus, microdilution CLSI M27-A3, 48 h, 37 °C, read-out: MIC C.g. 15126
Description: as §1, §2

[4] = system: Candida albicans 10231; test: Antifungal microdilution, C. albicans ATCC 10231; assay type: cell-based; conditions: microdilution CLSI M27-A3, 48 h, 37 °C
Description: as §1, §2

[5] = system: Staphylococcus aureus 25923; test: Broth microdilution, S. aureus ATCC 25923; assay type: cell-based; conditions: Staphylococcus aureus, 25923, 24 h, 37 °C
From the text: (§3) Compounds 3a–h were examined in accordance with the Clinical Laboratory Standards Institute (CLSI) recommendations, by means of the broth microdilution method, against gram-positive bacteria (Staphylococcus aureus 25923, Staphylococcus aureus 29213, Staphylococcus aureus 43300, Enterococcus faecalis 29212) and gram-negative bacteria (Escherichia coli 25922, Klebsiella pneumoniae 13883, Pseudomonas aeruginosa 27853) belonging to the ATCC collection, using levofloxacin as a reference drug. Table 3 lists the results, expressed as MIC (µg/mL). […] The lack of activity observed for compound 3d could be conceivably due to its poor solubility in the culture medium containing the inoculum.
(§4) Following the recommendations of the CLSI (Clinical and Laboratory Standards Institute, 2012), the broth microdilution method was used to determine the in vitro minimum inhibitory concentrations (MICs, µg/mL).. The concentration of the investigated compounds was set to its highest value to create stock solutions. Then, the stock solutions were diluted 1:10 with Cation-Adjusted Mueller Hinton Broth (Oxoid, Milan, Italy). After that, a series of concentrations from 512 µg/mL to […] were obtained in the wells by performing two-fold serial dilutions in the appropriate test medium. The diluent used to create the stock solution was 100% DMSO. We used the following bacterial strains from the ATCC collection that were available as freeze-dried discs: gram-positive strains such as S. aureus ATCC 25923, 29213, and 43300, and E. faecalis ATCC 29212, and gram-negative ones such as E. coli ATCC 25922, K. pneuomoniae ATCC 13883, and P. aeruginosa ATCC 27853. To preserve the purity of cultures and to allow their reproducibility, cryovials of all microbial strains were set up in the medium and stored at −80 °C. Mueller Hinton Broth (MHB) was used to prepare pre-cultures of each bacterial strain, which were then incubated for 3–5 h at 37 °C. In accordance with CLSI procedure M7-A9, the turbidity of the bacterial cell suspension was calibrated to 0.5 McFarland Standard using a spectrophotometric approach (OD625 nm 0.08–0.10). The standardized suspension was then further diluted (1:100) with MHB to reach 1–2 × 10^6 CFU/mL. A 200 µL aliquot of the final inoculum was inserted into each well. As a control for growth, several wells containing only inoculated broth were prepared. The plates were incubated at 37 °C for 24 h, and the MIC values were calculated as the lowest concentration of compounds at which there was no optically detectable bacteria growth. Each experiment was carried out in duplicate and repeated twice to determine the MICs. Levofloxacin served as the study’s standard reference antibiotic. Additionally, the antibacterial activity of DMSO alone (used as a diluent for the investigated compounds) was examined; therefore, volumes of this solvent with a concentration of less than 5% were utilized throughout the experimentation.

[6] = system: Staphylococcus aureus 43300; test: Broth microdilution, S. aureus ATCC 43300; assay type: cell-based; conditions: 24 h, 37 °C, methicillin-resistant
From the text: as §3, §4

[7] = system: Escherichia coli 25922; test: Broth microdilution, E. coli ATCC 25922; assay type: cell-based; conditions: 24 h, 37 °C
From the text: as §3, §4

[8] = system: Klebsiella pneumoniae 13883; test: Broth microdilution, K. pneumoniae ATCC 13883; assay type: cell-based; conditions: 24 h, 37 °C, read-out: MIC K.p. 13883
From the text: as §3, §4

[9] = system: Staphylococcus aureus 29213; test: Broth microdilution, S. aureus ATCC 29213; assay type: cell-based; conditions: 24 h, 37 °C
From the text: as §3, §4

[10] = system: Enterococcus faecalis 29212; test: Broth microdilution, E. faecalis ATCC 29212; assay type: cell-based; conditions: 24 h, 37 °C, read-out: MIC E.f. 29212
From the text: as §3, §4

[11] = system: Pseudomonas aeruginosa 27853; test: Broth microdilution, P. aeruginosa ATCC 27853; assay type: cell-based; conditions: 24 h, 37 °C
From the text: as §3, §4

[12] = system: Acinetobacter baumanii 19606; test: Broth microdilution, A. baumanii 19606; assay type: cell-based; conditions: Acinetobacter baumannii, 24 h, 37 °C, read-out: MIC A.b. 19606
[13] = system: MCF-10A cells; test: MTT cell viability assay, nonmalignant MCF-10A; assay type: cell-based; conditions: Homo sapiens, 72 h exposure, nonmalignant breast epithelial cells, mean ± SD, read-out: IC50 MCF10-A
Description: (§5) The anticancer activity of the studied compounds (3a–h) was explored with regards to two human breast cancer cell lines, namely the estrogen receptor positive (ER+) MCF-7 cells and the triple negative MDA-MB-231 cells (ER-, PR-, and HER-2/Neu-). Cells were continuously exposed to the test substances for 72 h, after which their viability was assessed by means of the MTT assay. Table 2 lists the determined IC50 values for the investigated substances and the reference drug, thalidomide. […] Additionally, the same test for all the compounds has been performed on nonmalignant breast epithelial cells (MCF-10A) to ascertain their potential cytotoxicity.
(§6) The four cell lines used in this work (MCF-7, MDA-MB-231, MCF-10A, and 3T3-L1) were obtained from the American Type Culture Collection (ATCC, Manassas, VA, USA). All cell lines were maintained at 37 °C in a humidified atmosphere of 95% air and 5% CO2 and periodically screened for contamination. MCF-7, human breast cancer cells estrogen receptor (ER)-positive, and human breast cancer triple negative MDA-MB231 were grown in DMEM-F12 medium containing 2 mmol/L L-glutamine, 1 mg/mL penicillin–streptomycin, and 5% newborn calf serum (NCS) or 5% fetal bovine serum (FBS), respectively. MCF-10A human mammary epithelial cells were cultured in DMEM/F12 medium, supplemented with 5% horse serum (HS) (Eurobio, Les Ullis, Cedex, France), 100 U/mL penicillin/streptomycin, […], 20 ng/mL hEGF (human epidermal growth factor), […], and […] (Sigma-Aldrich, Milano, Italy). BALB/3T3 murine fibroblast cells were cultured in DMEM high glucose supplemented with 10% bovine calf serum (BCS), 1% L-glutamine, and 100 U/mL penicillin/streptomycin.
(§7) Cell viability was evaluated by means of the 3-(4,5-dimethylthiazol-2-y1)-2,5-diphenyltetra zolium bromide (MTT, Sigma-Aldrich, Milan, Italy) assay. On 48-well plates, cells were seeded, and they were cultured in complete medium. Before being treated, cells were starved in serum-free medium for 24 h to allow cell cycle synchronization. Subsequently, cells were exposed to increasing doses of each compound for 72 h in phenol-red-free media supplemented with 1% serum before fresh MTT was added to each well (final concentration: 0.5 mg/mL). Cells were lysed with DMSO after 2 h of incubation at 37 °C, and optical density at 570 nm was then determined with a microplate reader. Using GraphPad Prism 9 software (GraphPad Inc., San Diego, CA, USA), the mean absorbance for each sample was expressed as a percentage over the control and plotted vs. drug concentrations to establish the IC50 values. The given standard deviations (SDs) are indicative of three separate tests carried out in triplicate.

[14] = system: MCF-7 cells; test: MTT cell viability assay, MCF-7; assay type: cell-based, human; conditions: Homo sapiens, MCF7, 72 h exposure, mean ± SD
Description: as §5, §6, §7

[15] = system: MDA-MB-231 cells; test: MTT cell viability assay, MDA-MB-231; assay type: cell-based, human; conditions: Homo sapiens, MDA-MB-231, 72 h exposure, mean ± SD
Description: as §5, §6, §7

[16] = system: MDA-MB-231 cells; test: TUNEL assay (DNA damage); assay type: cell-based, human; conditions: 50 μM, 24 h
Description: To further assess the effect of 3h treatment in MDA-MB-231, the terminal deoxynucleotidyl transferase dUTP nick-end labeling (TUNEL) assay was used. Thus, 3h or Thalidomide, as reference drug, were administered to the cells, for 24 h, at 25 and 50 μM concentrations, respectively, or with only the vehicle (DMSO), as negative control and then processed as outlined in the experimental section. […] Nuclei were counterstained with blue DAPI (Figure 2, panels A), and merge channels were also shown (Figure 2, panels C), where it is evident the perfect superposition of green and blue signals. […] Images taken from bright fields were also included (Figure 2, panels D).
DNA damage and cell death were analyzed by means of the TUNEL assay as indicated by the manufacturer’s protocols (CF™488A TUNEL Assay Apoptosis Detection Kit, Biotium, Hayward, CA, USA), with few changes, as in [42]. DAPI staining (0.2 μg/mL, Sigma Aldrich, Milan, Italy) was adopted for cell nuclei. Observations were made at 20× magnification using a fluorescence microscope (Leica DM 6000, Leica Microsystem Srl, Buccinasco, Italy). LAS-X software (Version: 3.5.7.23225; Leica Microsystem Srl, Buccinasco, Italy) was employed for the acquisition and processing of the images. Images are representative of two separate experiments from which different fields were acquired.
Figure 2 TUNEL assay. […]

MIC [1]: 1 µg/mL (≈ 1.08 µM) | MIC [2]: 2 µg/mL (≈ 2.16 µM) | MIC [3]: 2 µg/mL (≈ 2.16 µM) | MIC [4]: 2 µg/mL (≈ 2.16 µM)
SMILES: C[C@@H]1[C@H](O)[C@@H](C)/C=C/C=C/C=C/C=C/C=C/C=C/C=C/[C@H](O[C@@H]2O[C@H](C)[C@@H](O)[C@H](N)[C@@H]2O)C[C@@H]2O[C@](O)(C[C@@H](O)C[C@@H](O)[C@H](O)CC[C@@H](O)C[C@@H](O)CC(=O)O[C@H]1C)C[C@H](O)[C@H]2C(=O)O [amph B, amphotericin B, reference compound]

MIC [5]: 0.5 µg/mL (≈ 1.38 µM) | MIC [6]: 0.5 µg/mL (≈ 1.38 µM) | MIC [7]: 0.06 µg/mL (≈ 0.166 µM) | MIC [8]: 8 µg/mL (≈ 22.1 µM) | MIC [9]: 0.5 µg/mL (≈ 1.38 µM) | MIC [10]: 2 µg/mL (≈ 5.53 µM) | MIC [11]: 4 µg/mL (≈ 11.1 µM) | MIC [12]: 8 µg/mL (≈ 22.1 µM)
SMILES: C[C@H]1COc2c(N3CCN(C)CC3)c(F)cc3c(=O)c(C(=O)O)cn1c23 [levofloxacin, reference compound]

IC50 [14]: 360 ± 2 µM | IC50 [15]: 413 ± 2 µM
SMILES: O=C1CCC(N2C(=O)c3ccccc3C2=O)C(=O)N1 (stereo not shown) [thalidomide, reference compound]
IC50 [13]: > 500 µM | DNA damage (TUNEL, green nuclear fluorescence) [16]: found to damage DNA

From paper PMC10740580, “Benzothiazole-Phthalimide Hybrids as Anti-Breast Cancer and Antimicrobial Agents” (Antibiotics, 2023)
